Results: patent US20210292843A1, “TREATMENT OF DISEASES ASSOCIATED WITH ACTIVATED IRAK” (CHILDREN'S HOSPITAL MEDICAL CENTER, priority 2016, published 2021)

Columns and labels:
Format in all cases: cell-based, human
[1] = tested on: phospho-IRAK1, phospho-pIKK, and phospho-p65; assay: Immunoblotting of innate immune signaling after IRAK1/4 inhibitor treatment; conditions: S34F-U2AF1 K562 cells; IRAK1/4 inhibitor for 1 hour and 2 hours; immunoblot (FIG. 13A)
Method: Total protein lysates were obtained from cells by lysing the samples in cold RIPA buffer (50 mM Tris-HCl, 150 mM NaCl, 1 mM EDTA, 1% Triton X-100 and 0.1% SDS), in the presence of PMSF, sodium orthovanadate, protease and phosphatase inhibitors. Protein concentration was evaluated by a BCA assay (32106, Pierce, Rockford, Ill.). The bound proteins were separated by SDS-polyacrylamide gel electrophoresis, transferred to nitrocellulose membranes, and analyzed by immunoblotting. Western blot analysis was performed with the following antibodies: IRAK4 C-term (ab5985; Abcam, Cambridge, UK), IRAK N-term (4363; Cell Signaling Technology), GAPDH (5174; Cell Signaling Technology), Flag (F3165; Sigma, St. Louis, Mo.), IRAK1 (sc-7883; Santa Cruz, Dallas, Tex.), phospho-IRAK1 (T209) (A1074; AssaybioTech, Sunnyvale, Calif.), U2AF1 (ab86305; Abeam), IKKβ (2370; Cell Signaling Technology), phospho-IKKα/β (2697; Cell Signaling Technology), p38 MAPK (9212; Cell Signaling Technology), phopho-p38 MAPK (4631; Cell Signaling Technology), ERK (4695; Cell Signaling Technology), phospho-ERK (4377; Cell Signaling Technology), p65 (8242; Cell Signaling Technology) and phospho-p65 (3033; Cell Signaling Technology).
Doxycycline-inducible FLAG-tagged WT U2AF1 or FLAG-tagged mutant U2AF1(S34F) lentiviral expression plasmids have been previously described, and lentivirus was generated in 293T cells with the packaging plasmids pMD-G, pMD-Lg and REV. Concentrated virus (multiplicity of infection (MOI) of 3 for K562, MOI of 5 for OCI-AML3) was used to transduce K562 cells (ATCC, CCL243) or OCI-AML3 (DSMZ, ACC 582). […]
(§1) It was then investigated in whether or not there was a therapeutic opportunity in a subset of patients with increased IRAK4-Long expression, since expression of IRAK4-Long is associated with poor AML patient outcome (as described in Example 4, above). […] K562 WT- and S34F-U2AF1 were treated with DMSO or 10 uM IRAK1/4 inhibitor for 7 days, and cell viability was monitored by trypan blue exclusion. […]
(§2) Viability was measured by Trypan Blue staining. […] Colonies were counted after 7 days.

K562 S34F-U2AF1 cells [2] = assay: Clonogenic progenitor assay in methylcellulose; conditions: 10 uM inhibitor, colonies counted after 7 days, S34F-U2AF1 compared to WT-U2AF1 cells (FIG. 13C)
Description: (§3) Doxycycline-inducible FLAG-tagged WT U2AF1 or FLAG-tagged mutant U2AF1(S34F) lentiviral expression plasmids have been previously described, and lentivirus was generated in 293T cells with the packaging plasmids pMD-G, pMD-Lg and REV. Concentrated virus (multiplicity of infection (MOI) of 3 for K562, MOI of 5 for OCI-AML3) was used to transduce K562 cells (ATCC, CCL243) or OCI-AML3 (DSMZ, ACC 582). Transduced cells (marked by green fluorescent protein) were isolated by flow cytometry cell sorting. Expression of mutant or WT U2AF1 was induced using the indicated concentrations of doxycycline hyclate (Sigma) in water. (Shirai C, et al., 2017)
Clonogenic progenitor frequencies were determined by plating 1×10^3 K562 cells/ml in methylcellulose (Methocult H4236; Stem Cell Technologies). Colonies were scored after 7 days.
as §1, §2

K562 S34F-U2AF1 cells [3] = assay: Growth curve, cell viability by trypan blue exclusion; conditions: 10 uM inhibitor vs DMSO, S34F-U2AF1 cells (FIG. 13B)
Description: as §3
(§4) Trypan blue exclusion was measured using an automated cell counter (BioRad, Hercules, Calif., TC10). Cells were replenished with fresh media, doxycycline and drug every fifth day.
as §1, §2

K562 WT-U2AF1 cells = assay: as above; conditions: 10 uM inhibitor vs DMSO, 7 days, WT-U2AF1 cells (FIG. 13B)
Description: as §3, §4, §1, §2

Q: `O=C(Nc1nc2ccccc2n1CCN1CCOCC1)c1cccc([N+](=O)[O-])c1` [IRAK1/4 inhibitor] was tested. Which phospho-IRAK1 level [1] did it give?
A: returned to normal

Q: What about the phospho-p65 level [1] of the same molecule?
A: returned to normal

Q: What about the phospho-pIKK level [1] of the same molecule?
A: returned to normal

Q: What about the “colonies in methylcellulose (leukemic progenitor function)” value (K562 S34F-U2AF1 cells [2]) of the same molecule?
A: significantly fewer colonies

Q: And the “cell viability / survival over 7 days” value (K562 S34F-U2AF1 cells [3])?
A: significantly reduced survival

Q: And the “decrease in proliferation and viability” value (K562 WT-U2AF1 cells)?
A: not seen
